# In US9427429B2, “Cancer diagnosis and imaging” (Tau Therapeutics LLC, priority 2010, dated 2016):
# Legend:
# Type in all cases: cell-based
# A10 cells = assay: Cell cycle analysis by flow cytometry and BUdR staining, with nocodazole block; conditions: for cell cycle arrest point: A10 cells treated 24 hours with T channel blocker before adding nocodazole, FIG. 3
# Experimental: Cell cycle analysis was performed using flow cytometry and BUdR staining. In FIG. 3, “Con” represents untreated, control cells. All other cell cultures were treated with nocodazole, which interferes with microtubule polymerization and blocks the cell cycle during M phase. […] Therefore, cell cultures were treated for 24 hours with T channel calcium channel blockers mibefradil (mib), nickel (Ni) or TTL-1177 (a proprietary compound owned by the assignee Tau Therapeutics), before adding nocodazole.
# [1] = test system: human lung cancer cells of cell line A549; assay: Cell cycle progression after mibefradil incubation, A549
# Experimental: (§1) To measure the efficacy of the cell cycle inhibitor mibefradil at stopping progression through the cell cycle, human lung cancer cells of cell line A549 and human prostate cancer cells of cell line were incubated with 10 μM mibefradil for 48 hours (M48H). […] Further data was collected by incubating the same cell lines with 10 μM of mibefradil for 18 hours followed by a 12 hour washout followed by another […] incubation with mibefradil (M18-12-18h).
# [2] = test system: human prostate cancer cells; assay: Cell cycle progression after mibefradil incubation, prostate cancer cells
# Experimental: as §1
# [3] = test system: human prostate cancer cells of cell line PC3; assay: Effect of mibefradil on the cell cycle of PC3 cells; conditions: PC3, 5 μM or 10 μM for 24 hours or 48 hours; effect of increasing concentration and contact time; FIG. 5
# Experimental: To measure the effect of mibefradil on the cell cycle of human prostate cancer cells of cell line PC3, PC3 cells were incubated with varying concentrations of mibefradil for varying times. The PC3 cells were incubated with either a 5 μM concentration or a 10 μM concentration for either 24 hours or 48 hours.
# [4] = test system: Human colon cancer cells, cell line HT29; assay: Uptake of imaging marker FDG after mibefradil, HT29; conditions: FDG 60 minutes after removal
# Experimental: The efficacy of the uptake of imaging markers after treatment with a cell cycle inhibitor was determined. Human colon cancer cells, cell line HT29, were first incubated for 24 hours with the cell cycle inhibitor mibefradil at concentrations of 5 μM (5 uM-FDG-HT29) and 10 μM (10 uM-FDG-HT29). After 24 hours of incubation with the mibefradil, the HT29 cells were removed from mibefradil contact. After 60 minutes of being removed from mibefradil contact, the imaging marker 2-deoxy-2-(^18F)fluoro-D-glucose (hereinafter, “FDG”) was administered.
# With a concentration of 10 μM of mibefradil, the increase in uptake of FDG was about 100% as compared to uptake of cells not incubated with mibefradil.
# [5] = test system: human lung cancer cells of cell line A549; assay: Uptake of imaging marker 3H-FDG after mibefradil, A549; conditions: 3H-FDG 30 minutes after removal
# Experimental: (§2) The uptake of an imaging marker was also determined in human lung cancer cells of cell line A549. A549 cells were incubated with 5 μM, 10 μM and 15 μM concentrations of the cell cycle inhibitor mibefradil for 24 hours. After 24 hours of incubation with the mibefradil, the A549 cells were removed from mibefradil contact. After 30 minutes of being removed from mibefradil contact, the imaging marker tritiated FDG (hereinafter “3H-FDG”) was administered. […] Although not shown, incubation of human prostate cancer cells of the PC3 cell line with 10 μM mibefradil for 72 hours increased uptake of the subsequently introduced imaging marker 3H-FDG by about 60%.
# [6] = test system: human prostate cancer cells of the PC3 cell line; assay: Uptake of imaging marker 3H-FDG after mibefradil, PC3; conditions: PC3, 10 μM mibefradil for 72 hours; data not shown
# Experimental: as §2
Compound,cell cycle arrest point (A10 cells),"proportion of cells in the G1 phase vs control ([1]; A549, 10 μM for 18 hours, 12 hour washout, another 8 hour incubation (M18-12-18h))","proportion of cells in the G1 phase ([1]; A549, 10 μM mibefradil for 48 hours (M48H), FIG. 4)","proportion of cells in the G1 phase vs control ([2]; 10 μM for 18 hours, 12 hour washout, another 8 hour incubation (M18-12-18h))","proportion of cells in the G1 phase ([2]; 10 μM mibefradil for 48 hours (M48H), FIG. 4)",proportion of cells in the G1 phase [3],"uptake of the imaging marker FDG vs cells not incubated ([4]; HT29, 5 μM and 10 μM mibefradil 24 hours, FIG. 6)","increase in uptake of FDG vs cells not incubated ([4]; HT29, 10 μM mibefradil 24 hours)","uptake of 3H-FDG ([5]; A549, 5 μM, 10 μM and 15 μM mibefradil 24 hours, FIG. 7)","mibefradil concentration of maximal 3H-FDG uptake ([5]; A549, 24 hours incubation, 5, 10, 15 μM tested)",increase in uptake of 3H-FDG [6],"cell cycle block (A10 cells; A10 cells, nocodazole alone, flow cytometry)"
COCC(=O)O[C@]1(CCN(C)CCCc2nc3ccccc3[nH]2)CCc2cc(F)ccc2[C@@H]1C(C)C [mibefradil],arrested cells at the cell cycle checkpoint between G0 and G1,greater proportion of cells in the G1 phase,increased the proportion of cells in the G1 phase,greater proportion of cells in the G1 phase,increased the proportion of cells in the G1 phase,increases the proportion of cells in the G1 phase,increased,about 100%,increase in uptake being observed at all concentrations,5 µM,about 60%,
[Ni] [nickel],arrested cells at the cell cycle checkpoint between G0 and G1,,,,,,,,,,,
COC(=O)Nc1nc2ccc(C(=O)c3cccs3)cc2[nH]1 [nocodazole],,,,,,,,,,,,blocked cell cycle transit through M phase
